Measured values taken from article PMC10247784, “Physiological activation of human and mouse bitter taste receptors by bile acids” (Communications Biology, 2023).
Where “and” joins values, the source holds several entries; their conditions need not be identical. Equal values may be shown once.

Molecular target: T1, human TAS2R4 (Homo sapiens, UniProt Q9NYW5)
T1 construct: expressed in transfected cells; host or cells: HEK293T-Gα16gust44
T1 sequence (Q9NYW5 1-299): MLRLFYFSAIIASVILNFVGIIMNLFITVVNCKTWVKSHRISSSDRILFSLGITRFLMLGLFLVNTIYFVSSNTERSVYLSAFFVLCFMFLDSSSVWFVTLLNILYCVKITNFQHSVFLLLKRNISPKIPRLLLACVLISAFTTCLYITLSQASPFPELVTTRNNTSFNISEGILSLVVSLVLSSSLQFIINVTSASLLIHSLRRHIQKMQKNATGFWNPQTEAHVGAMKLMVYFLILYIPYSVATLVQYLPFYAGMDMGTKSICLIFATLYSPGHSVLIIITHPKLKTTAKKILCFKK
Test: Calcium imaging assay (FLIPR), HEK293T-Gα16gust44 cells transfected with human TAS2R4
Format: cell-based
How it was run: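 Read-out is Fluo-4 fluorescence change (ΔF/F) after automated application of bile acids (DMSO stocks) to transiently transfected cells. Values are corrected for empty-vector cells and normalized to buffer. Dose-response from three independent experiments in duplicate; threshold concentration set at p < 0.01 versus mock.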

Efficacy = maximal amplitude (ΔF/F) (TAS2R4, bile acids, mean): 0.07236
Efficacy (maximal amplitude ΔF/F), individual data points (TAS2R4, bile acids, single replicates, listed as UDCA): 0.07954 and 0.05089 and 0.08665
Δ F/F (TAS2R4, conc. 0,01 mM): 0.05163
Δ F/F (TAS2R4, conc. 0,03 mM): 0.07236
Δ F/F (TAS2R4, conc. 0,00003 mM): 0.00102
Δ F/F (TAS2R4, conc. 0,0001 mM): 0.006537
Δ F/F (TAS2R4, conc. 0,0003 mM): -0.0004307
Δ F/F (TAS2R4, conc. 0,001 mM): 0.008217
Δ F/F (TAS2R4, conc. 0,003 mM): 0.01726
RLU, fluorescence trace (Time (s) 0): 0 RLU
RLU, fluorescence trace (Time (s) 2): -16.0588 RLU
RLU, fluorescence trace (Time (s) 4): 1.8572 RLU
RLU, fluorescence trace (Time (s) 6): -24.0432 RLU
RLU, fluorescence trace (Time (s) 8): -15.0627 RLU
RLU, fluorescence trace (Time (s) 12): -11.1029 RLU
RLU, fluorescence trace (Time (s) 14): -16.031 RLU
RLU, fluorescence trace (Time (s) 16): -22.0279 RLU
RLU, fluorescence trace (Time (s) 18): -16.0557 RLU
RLU, fluorescence trace (Time (s) 18.766 (TCA, TLCA: 18.782)): -31 RLU
RLU, fluorescence trace (Time (s) 20.781 (TCA, TLCA: 20.782)): -77.5296 RLU
RLU, fluorescence trace (Time (s) 22.781 (TCA, TLCA: 22.782)): -20.8274 RLU
RLU, fluorescence trace (Time (s) 24.781 (TCA, TLCA: 24.782)): 13.5346 RLU
RLU, fluorescence trace (Time (s) 26.781 (TCA, TLCA: 26.782)): 47.9642 RLU
RLU, fluorescence trace (Time (s) 28.781 (TCA, TLCA: 28.782)): 73.9776 RLU
RLU, fluorescence trace (Time (s) 30.781 (TCA, TLCA: 30.782)): 141.824 RLU
RLU, fluorescence trace (Time (s) 32.781 (TCA, TLCA: 32.782)): 170.961 RLU
RLU, fluorescence trace (Time (s) 34.781 (TCA, TLCA: 34.782)): 211.304 RLU
RLU, fluorescence trace (Time (s) 36.781 (TCA, TLCA: 36.782)): 286.431 RLU
RLU, fluorescence trace (Time (s) 38.781 (TCA, TLCA: 38.782)): 316.3 RLU
RLU, fluorescence trace (Time (s) 40.781 (TCA, TLCA: 40.782)): 327.594 RLU
RLU, fluorescence trace (Time (s) 42.781 (TCA, TLCA: 42.782)): 352.031 RLU
RLU, fluorescence trace (Time (s) 44.781 (TCA, TLCA: 44.782)): 380.127 RLU
RLU, fluorescence trace (Time (s) 46.781 (TCA, TLCA: 46.782)): 405.893 RLU
RLU, fluorescence trace (Time (s) 48.781 (TCA, TLCA: 48.782)): 396.948 RLU
RLU, fluorescence trace (Time (s) 50.781 (TCA, TLCA: 50.782)): 411.019 RLU
RLU, fluorescence trace (Time (s) 52.781 (TCA, TLCA: 52.782)): 398.089 RLU
RLU, fluorescence trace (Time (s) 54.781 (TCA, TLCA: 54.782)): 413.206 RLU
RLU, fluorescence trace (Time (s) 56.781 (TCA, TLCA: 56.782)): 434.735 RLU
RLU, fluorescence trace (Time (s) 58.781 (TCA, TLCA: 58.782)): 418.956 RLU
RLU, fluorescence trace (Time (s) 60.781 (TCA, TLCA: 60.782)): 389 RLU
RLU, fluorescence trace (Time (s) 62.781 (TCA, TLCA: 62.782)): 407.272 RLU
RLU, fluorescence trace (Time (s) 64.781 (TCA, TLCA: 64.782)): 410.187 RLU
RLU, fluorescence trace (Time (s) 66.781 (TCA, TLCA: 66.782)): 395 RLU
RLU, fluorescence trace (Time (s) 68.781 (TCA, TLCA: 68.782)): 396.708 RLU
RLU, fluorescence trace (Time (s) 70.781 (TCA, TLCA: 70.782)): 394.232 RLU
RLU, fluorescence trace (Time (s) 72.781 (TCA, TLCA: 72.782)): 389.174 RLU
RLU, fluorescence trace (Time (s) 74.781 (TCA, TLCA: 74.782)): 367.247 RLU
RLU, fluorescence trace (Time (s) 76.781 (TCA, TLCA: 76.782)): 368.083 RLU
RLU, fluorescence trace (Time (s) 78.781 (TCA, TLCA: 78.782)): 368.91 RLU
RLU, fluorescence trace (Time (s) 80.781 (TCA, TLCA: 80.782)): 354 RLU
RLU, fluorescence trace (Time (s) 82.781 (TCA, TLCA: 82.782)): 345.234 RLU
RLU, fluorescence trace (Time (s) 84.781 (TCA, TLCA: 84.782)): 349.472 RLU
RLU, fluorescence trace (Time (s) 86.781 (TCA, TLCA: 86.782)): 337.61 RLU
RLU, fluorescence trace (Time (s) 88.781 (TCA, TLCA: 88.782)): 322.366 RLU
RLU, fluorescence trace (Time (s) 90.781 (TCA, TLCA: 90.782)): 310.929 RLU
RLU, fluorescence trace (Time (s) 92.781 (TCA, TLCA: 92.782)): 320.728 RLU
RLU, fluorescence trace (Time (s) 94.781 (TCA, TLCA: 94.782)): 299.044 RLU
RLU, fluorescence trace (Time (s) 96.781 (TCA, TLCA: 96.782)): 305.557 RLU
RLU, fluorescence trace (Time (s) 98.781 (TCA, TLCA: 98.782)): 298.819 RLU
RLU, fluorescence trace (Time (s) 100.781 (TCA, TLCA: 100.782)): 293.739 RLU
RLU, fluorescence trace (Time (s) 102.781 (TCA, TLCA: 102.782)): 282.259 RLU
RLU, fluorescence trace (Time (s) 104.781 (TCA, TLCA: 104.782)): 266.754 RLU
RLU, fluorescence trace (Time (s) 106.781 (TCA, TLCA: 106.782)): 276.382 RLU
RLU, fluorescence trace (Time (s) 108.781 (TCA, TLCA: 108.782)): 259.159 RLU
RLU, fluorescence trace (Time (s) 110.781 (TCA, TLCA: 110.782)): 276.445 RLU
RLU, fluorescence trace (Time (s) 112.781 (TCA, TLCA: 112.782)): 267.37 RLU
RLU, fluorescence trace (Time (s) 114.781 (TCA, TLCA: 114.782)): 253.353 RLU
RLU, fluorescence trace (Time (s) 116.781 (TCA, TLCA: 116.782)): 251.234 RLU
RLU, fluorescence trace (Time (s) 118.781 (TCA, TLCA: 118.782)): 253.766 RLU
RLU, fluorescence trace (Time (s) 120.781 (TCA, TLCA: 120.782)): 230.621 RLU
RLU, fluorescence trace (Time (s) 122.781 (TCA, TLCA: 122.782)): 238.721 RLU
RLU, fluorescence trace (Time (s) 124.781 (TCA, TLCA: 124.782)): 218.638 RLU
RLU, fluorescence trace (Time (s) 126.781 (TCA, TLCA: 126.782)): 215.286 RLU
RLU, fluorescence trace (Time (s) 128.781 (TCA, TLCA: 128.782)): 226.16 RLU
RLU, fluorescence trace (Time (s) 130.781 (TCA, TLCA: 130.782)): 229.593 RLU
RLU, fluorescence trace (Time (s) 132.781 (TCA, TLCA: 132.782)): 216.307 RLU
RLU, fluorescence trace (Time (s) 134.781 (TCA, TLCA: 134.782)): 209.298 RLU
RLU, fluorescence trace (Time (s) 136.781 (TCA, TLCA: 136.782)): 214.712 RLU
RLU, fluorescence trace (Time (s) 137.547): 211.548 RLU
RLU, fluorescence trace (Time (s) 143.547): 195.123 RLU
RLU, fluorescence trace (Time (s) 149.547): 191.876 RLU
RLU, fluorescence trace (Time (s) 155.547): 182.53 RLU
RLU, fluorescence trace (Time (s) 161.547): 172.093 RLU
RLU, fluorescence trace (Time (s) 167.547): 173.823 RLU
RLU, fluorescence trace (Time (s) 173.547): 178.999 RLU
RLU, fluorescence trace (Time (s) 179.547): 149.456 RLU
RLU, fluorescence trace (Time (s) 185.547): 128.186 RLU
RLU, fluorescence trace (Time (s) 191.547): 150.92 RLU
RLU, fluorescence trace (Time (s) 197.547): 155.041 RLU
RLU, fluorescence trace (Time (s) 203.547): 152.046 RLU
RLU, fluorescence trace (Time (s) 209.547): 155.822 RLU
RLU, fluorescence trace (Time (s) 215.547): 146.722 RLU
RLU, fluorescence trace (Time (s) 221.547): 144.396 RLU
RLU, fluorescence trace (Time (s) 227.547): 187.605 RLU
RLU, fluorescence trace (Time (s) 233.547): 160.672 RLU
RLU, fluorescence trace (Time (s) 239.547): 166.203 RLU
RLU, fluorescence trace (Time (s) 245.547): 147.048 RLU
RLU, fluorescence trace (Time (s) 293.547): 162.322 RLU
RLU, fluorescence trace (Time (s) 299.547): 130.446 RLU
RLU, fluorescence trace (Time (s) 305.547): 132.691 RLU
RLU, fluorescence trace (Time (s) 311.547): 138.907 RLU
RLU, fluorescence trace (Time (s) 317.547): 111.452 RLU
RLU, fluorescence trace (Time (s) 323.547): 135.942 RLU
RLU, fluorescence trace (Time (s) 329.547): 131.935 RLU
RLU, fluorescence trace (Time (s) 335.547): 149.888 RLU
RLU, fluorescence trace (Time (s) 341.547): 132.356 RLU
RLU, fluorescence trace (Time (s) 347.547): 117.981 RLU
RLU, fluorescence trace (Time (s) 353.547): 135.981 RLU
RLU, fluorescence trace (Time (s) 359.547): 144.823 RLU
Activation threshold concentration TAS2R4 (lowest concentration with significantly increased fluorescence vs empty vector (p < 0.01)): 3 µM
Compound: C[C@H](CCC(=O)O)[C@H]1CC[C@H]2[C@@H]3[C@@H](O)C[C@@H]4C[C@H](O)CC[C@]4(C)[C@H]3CC[C@]12C [Ursodeoxycholic Acid, ursodeoxycholic acid]
